“Also recorded” adds a separate entry of the source.
Columns and labels:
cornea = assay: Optical coherence tomography, corneal apical thickness; parameters: species or system rabbit; settings: for sustained thickness change, treated vs control / thickness increase compared to the baseline: final time point; for thickness increase compared to the baseline: all eyes (treated and control)
Method: In Group2 (n=15 rabbits), to assess corneal flattening, 24 intact eyeballs (12 rabbits) were enucleated and placed into a custom-build holder such that one eye was subject to ROS-Glycation-CXL, and the other served as a paired control. After 1 hr incubation in 20% ribose PBS, all apical eyeballs were pressed with a coverslip until the contact between the cornea and the coverslip reached approximately 3 mm in diameter until the treatment finished. Group 2A's (n=6 pairs) treated eyes were exposed to 1.5 hours of UVA lamp irradiation, whereas Group 2 B's (n=6 pairs) treated eyes were exposed to 3 hours of UVA lamp irradiation. Intraocular pressure was kept at 18-20 mm H2O through an IV system with needles connecting at the posterior side of the eyeball. In order to investigate the mechanical difference between the 1.5 hrs and 3 hrs irradiation groups, Group 2C's (n=3 pairs) corneas went through similar preparations as Group 1 corneas did such that the two treatments with different irradiation times were applied to the pair of eyes from the same animal. The corneas' cross-section and apical thickness were measured using an optical coherence tomographer (OQ LabScope Lumedica, North Carolina, USA) at the same time points described above. The thickness of the corneas was first segmented in ImageJ and calculated using a constant pixel-to-length conversion factor.

corneal tissues = assay: Multiphoton/confocal imaging: autofluorescence and second harmonic generation signal; parameters: species or system rabbit; settings: anterior 100 μm
Description: • The grey value of the top 100 μm (11 Z-stacks) of the cornea button was summed; • The average of the grey value summations are presented in appended FIGS. 1-25. • […] • The average of the grey value summations and Representative images at ˜600*600*100 μm in x, y, z are presented in appended FIGS. 1-25. The autofluorescence and second harmonic generation (SHG) signals of the corneal tissues in Group A were investigated to reveal the presence of CxLs and structural changes in collagenous ECM after hydration equilibrium in PBS on the same night of individual treatment days. Imaging was performed with a Nikon TI Eclipse inverted microscope using a Ti: Sapphire laser Chameleon Ultra II at 860 nm as the light source and a Nikon Apo LWD 20× objective for focusing. The emission filter was set at the FITC channel (475-650 nm, peak 525 nm) for autofluorescence signal collection and at the DAPI channel (400-600 nm, peak at 457 nm) for SHG signal collection. The XY scanning area for each sample was 635 μm by 635 μm, and Z scanning was 100 μm deep with 10 μm increments (stack of 11 images per sample). The summation of the average grey value processed in Image J at each layer was used as the representative signal strength for each sample.

[1] = ribose + 365 nm UVA lamp, listed as Ribose
[2] = ribose + 400 nm femtosecond laser
[3] = ribose + 1069 nm femtosecond laser
[4] = ribose + 1069 nm femtosecond laser, listed as Ribose

O=C[C@H](O)[C@H](O)[C@H](O)CO [ribose]
sustained thickness change, treated vs control (cornea; Group 2A, 1.5 hr treatment): no significant difference; also recorded: no significant immediate and sustained corneal apical thickness differences
immediate thickness change, treated vs loading-only control (cornea; Group 2A, 1.5 hr treatment, immediately after treatment): no significant thickness change difference; also recorded: no significant immediate and sustained corneal apical thickness differences
thickness increase compared to the baseline (cornea; Group 2A): above 100 μm
sustained thickness change, treated vs control (cornea; Group 2B, 3 hr treatment): no significant difference; also recorded: no significant immediate and sustained corneal apical thickness differences
thickness increase compared to the baseline (cornea; Group 2B): above 200 μm
immediate apical thickness increase compared to loading-only control (cornea; Group 2B: coverslip flattening + 3 hr ROS-Glycation CxL, immediately after treatment): 400 nm
autofluorescence signal intensity change vs paired control (words) (corneal tissues; ribose + 365 nm UVA lamp): increased significantly; also recorded: slightly increased; also recorded: Statistical significance
second harmonic generation signal intensity change vs paired control (words) (corneal tissues; ribose + 365 nm UVA lamp): decreased significantly; also recorded: statistically significant decreases; also recorded: Statistical significance
autofluorescence signal intensity change vs paired control (words) (corneal tissues; [1]): increased
second harmonic generation signal intensity change vs paired control (words) (corneal tissues; [1]): decreased
autofluorescence signal intensity change vs paired control (words) (corneal tissues; [2]): increased significantly; also recorded: slightly increased; also recorded: Statistical significance
second harmonic generation signal intensity change vs paired control (words) (corneal tissues; [2]): decreased significantly; also recorded: statistically significant decreases; also recorded: Statistical significance
autofluorescence signal intensity change vs paired control (words) (corneal tissues; [3]): increased significantly; also recorded: slightly increased; also recorded: Statistical significance
second harmonic generation signal intensity change vs paired control (words) (corneal tissues; [3]): decreased significantly; also recorded: statistically significant decreases; also recorded: Statistical significance
autofluorescence signal intensity change vs paired control (words) (corneal tissues; [4]): increased
second harmonic generation signal intensity change vs paired control (words) (corneal tissues; [4]): decreased
